Tested on: K98450-129-R-PDC complex spheroid growth, percent test/control
Assay: Anticancer human tumor K98450-129-R-PDC patient-derived colon adenocarcinoma cell line growth inhibition [RAS]
Conditions: for IC50: curve of first compound; for viability, T/C: stronger effect = lower value
In short: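 Multi-cell-type spheroids: tumor cells plus HUVEC endothelial cells and mesenchymal stem cells. RAS-pathway inhibitors were combined with targeted agents, each dosed in half-log steps down from clinical Cmax, or from 10 microM when Cmax was unknown.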

[1] = second compound 0.000949 µM, first compound 0.0316 µM
[2] = second compound 0.000949 µM, first compound 0.1 µM
[3] = second compound 0.000949 µM, first compound 0.316 µM
[4] = second compound 0.000949 µM, first compound 1 µM
[5] = second compound 0.000949 µM, first compound 3.16 µM
[6] = second compound 0.000949 µM, first compound 10 µM
[7] = second compound 0.003 µM, first compound 0.0316 µM
[8] = second compound 0.003 µM, first compound 0.1 µM
[9] = second compound 0.003 µM, first compound 0.316 µM
[10] = second compound 0.003 µM, first compound 1 µM
[11] = second compound 0.003 µM, first compound 3.16 µM
[12] = second compound 0.003 µM, first compound 10 µM
[13] = second compound 0.00949 µM, first compound 0.0316 µM
[14] = second compound 0.00949 µM, first compound 0.1 µM
[15] = second compound 0.00949 µM, first compound 0.316 µM
[16] = second compound 0.00949 µM, first compound 1 µM
[17] = second compound 0.00949 µM, first compound 3.16 µM
[18] = second compound 0.00949 µM, first compound 10 µM
[19] = second compound 0.03 µM, first compound 0.0316 µM
[20] = second compound 0.03 µM, first compound 0.1 µM
[21] = second compound 0.03 µM, first compound 0.316 µM
[22] = second compound 0.03 µM, first compound 1 µM
[23] = second compound 0.03 µM, first compound 3.16 µM
[24] = second compound 0.03 µM, first compound 10 µM
[25] = second compound 0.0949 µM, first compound 0.0316 µM
[26] = second compound 0.0949 µM, first compound 0.1 µM
[27] = second compound 0.0949 µM, first compound 0.316 µM
[28] = second compound 0.0949 µM, first compound 1 µM
[29] = second compound 0.0949 µM, first compound 3.16 µM
[30] = second compound 0.0949 µM, first compound 10 µM
[31] = second compound 0.3 µM, first compound 0.0316 µM
[32] = second compound 0.3 µM, first compound 0.1 µM
[33] = second compound 0.3 µM, first compound 0.316 µM
[34] = second compound 0.3 µM, first compound 1 µM
[35] = second compound 0.3 µM, first compound 3.16 µM
[36] = second compound 0.3 µM, first compound 10 µM
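Further: spheroids exposed to agents for seven days before the viability readout.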
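Wherever viability, T/C is given: luminescence used as a proxy for viable cell amount.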

## Cc1nc(N2CCC3(CC2)COC(C)C3N)c(CO)nc1Sc1ccnc(N)c1Cl (stereo unspecified) + CCn1c(-c2cc(N3CCN(C)CC3)cnc2C(C)OC)c2c3cc(ccc31)-c1csc(n1)CC(NC(=O)C1CC1C)C(=O)N1CCCC(N1)C(=O)OCC(C)(C)C2
Second compound 0.000949 µM
  IC50: 1400 nM
Second compound 0.003 µM
  IC50: 644 nM
Second compound 0.00949 µM
  IC50: 224 nM
Second compound 0.03 µM
  IC50: < 31.6 nM
Second compound 0.0949 µM
  IC50: < 31.6 nM
Second compound 0.3 µM
  IC50: < 31.6 nM
[1]
  viability, T/C: 99.3%
[2]
  viability, T/C: 71.3%
[3]
  viability, T/C: 80.2%
[4]
  viability, T/C: 55.4%
[5]
  viability, T/C: 35.8%
[6]
  viability, T/C: 16.7%
[7]
  viability, T/C: 89%
[8]
  viability, T/C: 64.3%
[9]
  viability, T/C: 61.8%
[10]
  viability, T/C: 51.8%
[11]
  viability, T/C: 22%
[12]
  viability, T/C: 11%
[13]
  viability, T/C: 64.3%
[14]
  viability, T/C: 53.4%
[15]
  viability, T/C: 48.2%
[16]
  viability, T/C: 19.5%
[17]
  viability, T/C: 8.78%
[18]
  viability, T/C: 7.55%
[19]
  viability, T/C: 38.6%
[20]
  viability, T/C: 39.2%
[21]
  viability, T/C: 14.5%
[22]
  viability, T/C: 8.49%
[23]
  viability, T/C: 8.08%
[24]
  viability, T/C: 6.16%
[25]
  viability, T/C: 15.2%
[26]
  viability, T/C: 13.1%
[27]
  viability, T/C: 10.9%
[28]
  viability, T/C: 9.07%
[29]
  viability, T/C: 6.17%
[30]
  viability, T/C: 4%
[31]
  viability, T/C: 10.7%
[32]
  viability, T/C: 11.6%
[33]
  viability, T/C: 9.12%
[34]
  viability, T/C: 7.56%
[35]
  viability, T/C: 6.68%
[36]
  viability, T/C: 5.63%

## NC1c2ccccc2OC12CCN(c1cnc3c(N4CCCc5ncccc54)n[nH]c3n1)CC2 (stereo unspecified) + CCn1c(-c2cc(N3CCN(C)CC3)cnc2C(C)OC)c2c3cc(ccc31)-c1csc(n1)CC(NC(=O)C1CC1C)C(=O)N1CCCC(N1)C(=O)OCC(C)(C)C2
Second compound 0.000949 µM
  IC50: 116 nM
Second compound 0.003 µM
  IC50: 63.1 nM
Second compound 0.00949 µM
  IC50: < 31.6 nM
Second compound 0.03 µM
  IC50: < 31.6 nM
Second compound 0.0949 µM
  IC50: < 31.6 nM
Second compound 0.3 µM
  IC50: < 31.6 nM
[1]
  viability, T/C: 85.1%
[2]
  viability, T/C: 54.5%
[3]
  viability, T/C: 20.4%
[4]
  viability, T/C: 8.29%
[5]
  viability, T/C: 8.32%
[6]
  viability, T/C: 8.57%
[7]
  viability, T/C: 69.2%
[8]
  viability, T/C: 37.2%
[9]
  viability, T/C: 8.71%
[10]
  viability, T/C: 5.81%
[11]
  viability, T/C: 5.89%
[12]
  viability, T/C: 8.17%
[13]
  viability, T/C: 44.1%
[14]
  viability, T/C: 11.7%
[15]
  viability, T/C: 6.79%
[16]
  viability, T/C: 5.19%
[17]
  viability, T/C: 5.86%
[18]
  viability, T/C: 7.32%
[19]
  viability, T/C: 15.4%
[20]
  viability, T/C: 9.39%
[21]
  viability, T/C: 6.76%
[22]
  viability, T/C: 6.09%
[23]
  viability, T/C: 6.31%
[24]
  viability, T/C: 7.21%
[25]
  viability, T/C: 10.1%
[26]
  viability, T/C: 7.59%
[27]
  viability, T/C: 5.43%
[28]
  viability, T/C: 4.79%
[29]
  viability, T/C: 4.55%
[30]
  viability, T/C: 7.03%
[31]
  viability, T/C: 9.29%
[32]
  viability, T/C: 7.37%
[33]
  viability, T/C: 5.01%
[34]
  viability, T/C: 4.13%
[35]
  viability, T/C: 4.98%
[36]
  viability, T/C: 5.88%

## Nc1ccn(C2OC(CO)C(O)C2(F)F)c(=O)n1 (stereo unspecified) + CCn1c(-c2cc(N3CCN(C)CC3)cnc2C(C)OC)c2c3cc(ccc31)-c1csc(n1)CC(NC(=O)C1CC1C)C(=O)N1CCCC(N1)C(=O)OCC(C)(C)C2
Second compound 0.000949 µM
  IC50: 254 nM
Second compound 0.003 µM
  IC50: 133 nM
Second compound 0.00949 µM
  IC50: 26.4 nM
Second compound 0.03 µM
  IC50: < 3.16 nM
Second compound 0.0949 µM
  IC50: < 3.16 nM
Second compound 0.3 µM
  IC50: < 3.16 nM
Second compound 0.000949 µM, first compound 0.00316 µM
  viability, T/C: 93.1%
Second compound 0.000949 µM, first compound 0.01 µM
  viability, T/C: 82.9%
[1]
  viability, T/C: 80.5%
[2]
  viability, T/C: 56.4%
[3]
  viability, T/C: 50.5%
[4]
  viability, T/C: 37.6%
Second compound 0.003 µM, first compound 0.00316 µM
  viability, T/C: 98.1%
Second compound 0.003 µM, first compound 0.01 µM
  viability, T/C: 80.1%
[7]
  viability, T/C: 62.3%
[8]
  viability, T/C: 52.8%
[9]
  viability, T/C: 44.4%
[10]
  viability, T/C: 37.3%
Second compound 0.00949 µM, first compound 0.00316 µM
  viability, T/C: 77%
Second compound 0.00949 µM, first compound 0.01 µM
  viability, T/C: 62.2%
[13]
  viability, T/C: 49.2%
[14]
  viability, T/C: 33.2%
[15]
  viability, T/C: 30%
[16]
  viability, T/C: 23.8%
Second compound 0.03 µM, first compound 0.00316 µM
  viability, T/C: 43.4%
Second compound 0.03 µM, first compound 0.01 µM
  viability, T/C: 45.9%
[19]
  viability, T/C: 33.5%
[20]
  viability, T/C: 23.1%
[21]
  viability, T/C: 20.7%
[22]
  viability, T/C: 15.2%
Second compound 0.0949 µM, first compound 0.00316 µM
  viability, T/C: 21.1%
Second compound 0.0949 µM, first compound 0.01 µM
  viability, T/C: 21.4%
[25]
  viability, T/C: 14.4%
[26]
  viability, T/C: 11.9%
[27]
  viability, T/C: 14.8%
[28]
  viability, T/C: 11.5%
Second compound 0.3 µM, first compound 0.00316 µM
  viability, T/C: 9.67%
Second compound 0.3 µM, first compound 0.01 µM
  viability, T/C: 13.7%
[31]
  viability, T/C: 12.9%
[32]
  viability, T/C: 11.4%
[33]
  viability, T/C: 10.9%
[34]
  viability, T/C: 9.09%

From PubChem BioAssay AID2060891 (Molecular Pharmacology Branch, DTP, NCI, 2025)
